Measurements reported in patent publication US10464930B2, “Compositions and methods for treating estrogen-related medical disorders” (THE BOARD OF TRUSTEES OF THE UNIVERSITY OF ILLINOIS, priority 2012, dated 2019).
Like-named read-outs stand apart in the source and are kept apart here.

How the values were obtained:
[1] = test system: LTP in the CA1 region of hippocampal sections; test: LTP after theta burst stimulation in hippocampal slices; design: species or system mouse; conditions: for end average potentiation of fEPSP (LTP): 30 min prior to TBS, slices of 16-month male 3×Tg mice
Protocol: LTP was measured after TBS in the CA1 region of hippocampal sections from 16 month male 3×Tg mice or WT controls. Test compounds (SERMs 100 nM; G15 100 nM) were added 30 min prior to TBS. […] (C) Secondary analysis of theta bursts indicate action both during induction and stabilization of LTP, through a GPR30 dependent mechanism.
LTP was measured after TBS in the CA1 region of hippocampal sections from 8 month old male C57Bl/6 mice. G15 (100 nM) was added 30 min prior to TBS and continued throughout. G15 had no effect on LTP, which reached levels equal to WT background in FIG. 2 for both controls and G15.
LTP was measured in the CA1 region of hippocampal sections from 16 month male 3×Tg mice using the method detailed in manuscript, with the exception of a variable interburst interval during TBS. ODQ (10 nM) was added 30 min prior to TBS and continued throughout.
Electrophysiology. All experiments used 16-month old male 3×Tg transgenic or age-matched WT background controls. For electrophysiology, mice were rapidly decapitated, and brains were removed into an ice-cold aCSF solution (in mM: NaCl 124, KCl 3.0, KH2PO4 1.25, NaHCO3 25.7, D-glucose 10, L-ascorbate 2.0, MgSO4 2.5, and CaCl2 3.3) and sectioned on a tissue chopper into 400 um sections. Slices were transported to a 37° C. solution of aCSF, continuously bubbled with 95% O2/5% CO2, and allowed to recover at least 60 min before experimentation. After placement of a stimulation electrode in the Schaffer commissural fibers and recording electrodes with 2 M NaCl solution into the stratum radiatum of the CA1 area, stimulus intensity was set to evoke submaximal fEPSP and continuously monitored at 20 s intervals for at least 15 min to establish a stable baseline. SERMs (100 nM) and G15 (100 nM) were prepared fresh in perfusate and started at least 30 min before LTP induction to reach a new baseline after enhancement of basal synaptic transmission was observed(97). LTP was induced using a theta burst induction protocol by applying 10 bursts of four pulses at 100 Hz with an interburst interval of 200 msec. Resulting fEPSP was monitored at 20 s intervals for […] post TBS.
Long-term potentiation (LTP) in the CA1 field of the hippocampus is a well-studied cellular model for learning and memory. […] At 16 months, an advanced age at which Alzheimer's-like neuropathology is well developed in these animals, studies on LTP have not previously been reported. We observed a robust, reproducible deficit in LTP in these aged transgenic mice, with field excitatory post-synaptic potentials (fEPSP) showing an end average potentiation of 97.0±6.4% of baseline at 45 min post-TBS, compared to 134.7±10.3% observed in the wild type (WT) controls (FIG. 2A,B).
To determine if drugs enhanced LTP by altering physiological responses during LTP induction, such as NMDA receptor-mediated currents or downstream events involved in expression or stabilization, the postsynaptic responses to theta bursts were quantified as previously described (56, 57).

[2] = test system: primary cortical neurons exposed to OGD; test: Oxygen glucose deprivation (OGD) neuroprotection, MTT; assay type: cell-based, rat; conditions: for neuroprotection (cell survival by MTT): 2 h OGD, survival at 24 h, SERMs 100 nM, normalized to E2 10 nM; for neuroprotective activity with GPR30 antagonist: plus G15 (100 nM); for neuroprotective activity with GPR blocker: plus pertussis toxin (100 ng/mL)
[3] = CNS bioavailability by LC-MS/MS; assay type: in vivo, mouse; conditions: 5 mg/kg i.p., up to 2 h after administration
Protocol: (§1) CNS Bioavailability & NOX Measurement. All experiments were performed on either male C57B1/6 mice (Charles River Laboratory) or eNOS(−/−) animals. Animals were injected (i.p.) at various time points before sacrifice at the doses specified. After euthanasia via CO2, plasma was collected, and cortices and hippocampi were collected after PBS perfusion and stored at −80° C. Tissue samples were weighed and extracted with methanol. Plasma samples were extracted with cold acetonitrile. Quantitative analysis of drug concentrations in plasma and brain used internal standards spiked into plasma and brain homogenates before liquid extraction with acetonitrile or methanol, and separation and measurement was performed with LC-MS/MS tandem mass spectrometry. The supernatant (deproteinized) was analyzed by chemiluminescence with SIEVERS 280i nitric oxide analyzer.
(§2) Brain and plasma NO levels were assessed by measuring metabolic oxidation products, NO2^− and NO3^− (NOx), using chemiluminescence detection. […] To assess the relative contribution of eNOS, DMA and NO-DMA were administered to eNOS(−/−) animals.

[4] = test system: NO levels (NOx) in plasma and hippocampus; test: NOx measurement in plasma and CNS by chemiluminescence; assay type: in vivo, mouse; conditions: 2 mg/kg; for NOx in plasma or hippocampus, eNOS(−/−): eNOS(−/−) animals; for NOx in hippocampus and plasma, WT: one hour after injection, WT mice
Protocol: Levels of NO were assessed by measuring breakdown products 1 h after i.p. injection of SERMs (2 mg/kg) using chemiluminescence detection.
as §1, §2

[5] = test system: scopolamine- or L-NAME-induced memory deficit; test: Step through passive avoidance (STPA); assay type: in vivo, mouse; conditions: for reversal of scopolamine-induced memory deficit (STPA latency): 2 mg/kg i.p. 20 min prior to training, scopolamine 1 mg/kg, C57Bl/6, 24 h; for reversal of L-NAME-induced cognitive deficit (STPA) / reversal of scopolamine-induced deficit in eNOS KO mice (STPA): 2 mg/kg; for reversal of L-NAME-induced cognitive deficit (STPA): L-NAME 50 mg/kg 30 min prior to training
[6] = test system: clotting cascades (PT, aPTT); test: Anticoagulation: PT and aPTT after i.p. dosing; assay type: in vivo, mouse; conditions: for anticoagulation with impaired NOS function: 2 mg/kg 1 h prior, L-NAME 50 mg/kg 30 m prior to collection; for PT / aPTT / anticoagulant effect at 3 h: 2 mg/kg i.p.; for PT / aPTT: 1 h
Protocol: Blood was collected by cardiac puncture and PTT and aPTT were determined 1 or 3 h after i.p. drug administration (2 mg/kg).
Anticoagulation. SERMs were injected (i.p.) 1 h before blood collection, and L-NAME was injected (i.p.) 30 min before blood collection. The mouse was sedated by exposing it to CO2 until unconscious and blood was collected in 4.5 mL BD Vacutainer Glass Evacuated Blood Collection Tubes (with 0.105 M buffered sodium citrate) by cardiac puncture. The blood samples were centrifuged at 300 g for 30 min to separate the plasma from the blood, and then 200 uL of plasma was taken from each sample and the PT and aPTT were measured using an ACL 7000 Coagulation Analyzer. The analyzer injects […] of PT-fibrinogen (lyophilized rabbit brain calcium thromboplastin with stabilizers, polybrene, buffer and preservatives) to 75 μL of plasma sample to measure the PT, and 75 μL of synthAFAX (0.025 M)+100 μL of CaCl2 (0.02 M) were added to 75 μL of plasma to measure aPTT. The analysis was at 37° C. using a photo sensor at λ=671 nm.

[7] = test system: isolated aortic rings; test: Aortic ring relaxation
[8] = target: T1, ERα (Homo sapiens, UniProt P03372); test: ER ligand binding by competitive E2 displacement (ERα)
T1 sequence (P03372 1-595): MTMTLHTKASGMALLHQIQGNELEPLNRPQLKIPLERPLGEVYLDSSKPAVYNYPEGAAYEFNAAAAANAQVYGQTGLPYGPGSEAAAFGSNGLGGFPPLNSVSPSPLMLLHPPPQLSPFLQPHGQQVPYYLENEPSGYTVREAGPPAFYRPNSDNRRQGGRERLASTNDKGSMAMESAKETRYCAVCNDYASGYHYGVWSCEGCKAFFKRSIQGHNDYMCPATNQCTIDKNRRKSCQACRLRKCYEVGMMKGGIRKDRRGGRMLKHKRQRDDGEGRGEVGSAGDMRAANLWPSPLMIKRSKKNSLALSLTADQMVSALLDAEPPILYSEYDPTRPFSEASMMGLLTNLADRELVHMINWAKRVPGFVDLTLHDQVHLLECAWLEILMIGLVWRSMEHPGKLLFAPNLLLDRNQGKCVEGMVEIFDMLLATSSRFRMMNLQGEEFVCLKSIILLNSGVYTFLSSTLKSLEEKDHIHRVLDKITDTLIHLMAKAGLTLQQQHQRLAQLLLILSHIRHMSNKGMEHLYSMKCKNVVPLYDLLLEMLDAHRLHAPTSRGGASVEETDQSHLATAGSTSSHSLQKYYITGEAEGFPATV

[9] = target: ERβ (Homo sapiens, UniProt Q92731); test: ER ligand binding by competitive E2 displacement (ERβ)
Chain of ERβ (Q92731 whole entry, species assumed): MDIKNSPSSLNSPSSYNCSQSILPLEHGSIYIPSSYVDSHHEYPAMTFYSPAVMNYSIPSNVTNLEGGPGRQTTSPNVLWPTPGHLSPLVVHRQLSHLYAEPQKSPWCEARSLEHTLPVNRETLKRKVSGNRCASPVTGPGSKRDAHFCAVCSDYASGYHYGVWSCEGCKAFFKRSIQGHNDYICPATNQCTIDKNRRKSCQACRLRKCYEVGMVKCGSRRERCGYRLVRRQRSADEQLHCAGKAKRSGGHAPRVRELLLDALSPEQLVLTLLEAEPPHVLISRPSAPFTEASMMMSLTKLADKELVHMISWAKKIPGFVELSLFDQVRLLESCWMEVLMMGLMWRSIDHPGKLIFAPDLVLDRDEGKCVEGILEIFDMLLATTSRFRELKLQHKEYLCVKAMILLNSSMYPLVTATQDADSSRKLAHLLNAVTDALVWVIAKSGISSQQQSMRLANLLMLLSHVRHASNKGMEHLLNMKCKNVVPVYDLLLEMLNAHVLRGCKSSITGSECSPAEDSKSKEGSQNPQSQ

[10] = Rattus norvegicus, read-out: EC50 for relaxation

SMILES: Brc1cc2c(cc1[C@@H]1Nc3ccccc3[C@@H]3C=CC[C@@H]31)OCO2 [Compound G15]
- effect on LTP in WT slices ([1]; 100 nM, WT C57Bl/6 slices, absence of DMA): no effect

SMILES: Oc1ccc(-c2sc3cc(O)ccc3c2Oc2ccc(OCCN3CCCCC3)cc2)cc1 [DMA, desmethylarzoxifene]
- neuroprotection (cell survival by MTT) [2]: robust neuroprotection
- neuroprotective activity with GPR30 antagonist [2]: blocked
- neuroprotective activity with GPR blocker [2]: blocked
- enhancement of subsequent theta bursts during LTP induction ([1]; 100 nM, 3×Tg slices): augmented
- end average potentiation of fEPSP (LTP) ([1]; 100 nM): 144.9±8.7 % of baseline
- end fEPSP (LTP) with GPR30 blocker ([1]; DMA 100 nM plus G15 (100 nM), 3×Tg slices): 96.8±7.10%
- effect on LTP with ODQ ([1]; plus ODQ (10 nM), 3×Tg slices, preliminary): ODQ blocks effect of DMA
- brain regional retention [3]: preferential retention in the hippocampus over the cortex
- NOx in plasma or hippocampus, eNOS(−/−) [4]: no effect
- NOx in hippocampus and plasma, WT [4]: greater than twofold elevation
- reversal of scopolamine-induced memory deficit (STPA latency) [5]: restored the cognitive deficit
- reversal of L-NAME-induced cognitive deficit (STPA) [5]: not able to restore cognition
- reversal of scopolamine-induced deficit in eNOS KO mice (STPA) [5]: not able to restore cognition
- anticoagulation with impaired NOS function [6]: did not persist in the presence of NOS blockade
- PT [6]: increased PT
- aPTT [6]: significantly increased
- anticoagulant effect at 3 h [6]: decreased to that of control samples
- EC50 [7, 10]: 3.5 ± 2.5 µM
- efficacy (relaxation) ([7]; intact aortic rings): ~100%
- efficacy after endothelium removal or NOS inhibition ([7]; removal of the endothelium or L-NAME): significant decrease in the efficacy

SMILES: Oc1ccc2c(Oc3ccc(OCCN4CCCCC4)cc3)c(-c3ccc(F)cc3)sc2c1 [F-DMA]
- IC50 ([8]; competitive E2 displacement): 0.017 ± 0.0006 µM
- EC50 ([7]; read-out: EC50 for relaxation, intact aortic rings, mean, S.D.): 2.4 ± 1.2 µM

SMILES: O=[N+]([O-])OCCCC1CCN(CCOc2ccc(Oc3c(-c4ccc(O)cc4)sc4cc(O)ccc34)cc2)CC1 [NO-DMA, 3-(1-(2-(4-(6-hydroxy-2-(4-hydroxyphenyl)benzo[b]thiophen-3-yloxy)phenoxy)ethyl)piperidin-4-yl)propyl nitrate]
- IC50 [8]: 0.0214 ± 0.0067 µM
- IC50 [9]: 0.0244 ± 0.0096 µM
- neuroprotection (cell survival by MTT) [2]: robust neuroprotection identical to DMA
- neuroprotective activity with GPR30 antagonist [2]: blocked
- neuroprotection with ERα blockade ([2]; plus ICI 182780 (100 nM), added 45 min prior to OGD): did not block this effect
- attenuation of neuroprotective activity by NOS antagonist ([2]; plus L-NAME (100 μM)): ineffective
- attenuation of neuroprotective activity by PI3K inhibitor ([2]; plus LY294002 (10 μM)): effective
- neuroprotective activity with GPR blocker [2]: blocked
- enhancement of subsequent theta bursts during LTP induction ([1]; 100 nM, 3×Tg slices): augmented
- end average potentiation of fEPSP (LTP) ([1]; 100 nM): 144.2±5.2 % of baseline
- NOx in plasma or hippocampus, eNOS(−/−) [4]: increase NOx significantly
- NOx in hippocampus and plasma, WT [4]: greater than twofold elevation
- reversal of scopolamine-induced memory deficit (STPA latency) [5]: equivalent restoration of protection to DMA
- reversal of L-NAME-induced cognitive deficit (STPA) [5]: reversed only by NO-DMA
- reversal of scopolamine-induced deficit in eNOS KO mice (STPA) [5]: only NO-DMA showed efficacy
- anticoagulation with impaired NOS function [6]: significant anticoagulation compared to control
- PT [6]: increased PT, but only NO-DMA reached significance
- aPTT [6]: significantly increased
- anticoagulant effect at 3 h [6]: remained significantly higher than control
- EC50 [7, 10]: 0.13 ± 0.09 µM
- EC50 ([7]; Rattus norvegicus, read-out: EC50 for relaxation, L-NAME): 1 ± 0.54 µM
- EC50 ([7]; Rattus norvegicus, read-out: EC50 for relaxation, endothelium-denuded): 0.9 ± 0.69 µM
- maximal relaxation response ([7]; intact aortic rings): induced maximal relaxation
- potency relative to DMA ([7]; intact aortic rings): at least ten-fold increased potency

SMILES: COc1ccc(-c2sc3cc(O)ccc3c2Oc2ccc(OCCN3CCCCC3)cc2)cc1 [arzoxifene]
- reversal of scopolamine-induced memory deficit (STPA latency) [5]: restored the cognitive deficit
- EC50 [7, 10]: 3.3 ± 2.5 µM

SMILES: O=C(c1ccc(OCCN2CCCCC2)cc1)c1c(-c2ccc(O)cc2)sc2cc(O)ccc12 [raloxifene, Raloxifene]
- reversal of scopolamine-induced memory deficit (STPA latency) [5]: restored the cognitive deficit
- EC50 [7, 10]: 4 ± 2.9 µM
- efficacy (relaxation) ([7]; intact aortic rings): ~100%
